Laboratory results published in ChEMBL document CHEMBL1932957, “Synthesis of 2H-benzo[b][1,4]oxazin-3(4H)-one derivatives as platelet aggregation inhibitors” (Bioorg Med Chem Lett, 2012).
pIC50: −log10 of the molar value.

Assay: Antiplatelet activity in rabbit platelet rich plasma assessed as inhibition of ADP-induced platelet aggregation treated for 5 mins before ADP challenge measured for 6 mins by microplate reader
Assay type: functional, cell-free
Details: Oryctolagus cuniculus

Row | Compound | pIC50
1 | CCCN1C(=O)COc2cc(CNc3ccccc3)ccc21 | 4.99
2 | CCCN1C(=O)COc2cc(CNc3cccc(C)c3)ccc21 | 4.86
3 | CCCCN1C(=O)COc2cc(CNc3cccc(C)c3)ccc21 | 4.90
4 | CC(=O)Oc1ccccc1C(=O)O [ASPIRIN] | 5.22

Further molecules by rising pIC50, results first:

Row | pIC50 | Compound
5 | 4.73 | CCCN1C(=O)COc2cc(CNc3ccccc3C)ccc21
6 | 4.73 | CCCCN1C(=O)COc2cc(CNc3ccccc3C)ccc21
7 | 4.82 | CCCCN1C(=O)COc2cc(CNc3ccccc3)ccc21
8 | 4.85 | CCCN1C(=O)COc2cc(CNc3ccc(C)cc3)ccc21
9 | 5.50 | Clc1ccccc1CN1CCc2sccc2C1 [TICLOPIDINE]
